In patent US20190369111A1, “MOLECULAR KINETICS EVALUATION METHOD AND SCREENING METHOD” (Tokyo University of Science Foundation, priority 2016, published 2019):

Columns and labels:
wild-type p53 protein = molecular target: T1, wild-type p53 protein (Mus musculus, UniProt P02340); test: Degradation of wild-type p53 protein in each tissue of mouse after administration, Western blot analysis; format: in vivo
T1 construct: administered intraperitoneally to C57BL/6J wild-type mice; from tissue; host or cells: C57BL/6J wild-type mice: liver, kidneys, spleen, heart
Experimental: (§1) TIBC-CANDDY_MLN was dissolved in DMSO immediately before administration, and then dissolved in corn oil (Code No. 25606-55, Nacalai Tesque) so that the concentration of DMSO was 10 vol %, and then a dose of 50 mg/kg body weight or 100 mg/kg body weight was administered intraperitoneally to C57BL/6J wild-type mice (7 to 8 weeks old, male) (CLEA Japan, Inc.) (n=3). As a control, an injection carrier (corn oil containing 10 vol % DMSO) was used. The mice were kept under an environment of ad libitum access to food and water. The mice were dissected under deep anesthesia by Somnopentyl (Kyoritsu Seiyaku Corporation) 48 hours after administration. Abdominal section was performed, and then the liver, kidneys, spleen, and heart were sequentially extracted and flash frozen in liquid nitrogen. Each tissue frozen in liquid nitrogen was stored in a deep freezer at −80° C.
(§2) The frozen tissues (spleen: 0.02 g, other tissues: 0.04 g) were each frozen and triturated, and then 1×TKM tissue lysis buffer (50 mM triethanolamine (pH 7.8), 50 mM KCl, 5 mM MgCl2, 0.25 M sucrose, 1 mM PMSF, protein inhibitors cocktail-EDTA free (Code No. 03969-21, Nacalai Tesque), 1 mM DTT, and 5 μL/mL recombinant RNase inhibitor (40 U/μL, Cat No. 2313A, Lot No. K8402DA, TAKARA Bio)) were added in an amount of 490 μL for the spleen and 980 μL for the others, and dissolved by rotation for 15 minutes (1 rpm, 25° C.). Then, the resultant product was subjected to centrifugation (at 3000 rpm×15 minutes, 4° C.), and the supernatants (each tissue extract) was collected. The concentration of proteins in each tissue extract was quantified with a spectrophotometer using each tissue extract that had been diluted 20 times using DEPC-treated water.
(§3) Each tissue extract collected was subjected to Western blot analysis. An SDS-PAGE gel was prepared using TGX™ FastCast™ Acrylamide Kit, 12% (Bio-Rad). Electrophoresis samples were prepared in a 6×SDS-PAGE sample buffer (62.5 mM Tris-HCl pH 6.8, 2% SDS, 5% 2-mercaptoethanol, 10% glycerol, 0.25% BPB), and placed on a heat block at 95° C. for 5 minutes. The electrophoresis samples prepared were applied at 50 μg/well for detecting GAPDH, and at 100 μg/well for other detection. Electrophoresis was performed at 160 V for 60 minutes (electrophoresis buffer; 195 mM glycine, 25 mM Tris).
After electrophoresis, proteins were transferred to a PVDF membrane (Immobion™-P, Millipore) under conditions of 100 V and 1.5 hours using a tank-type blotting device and a transfer buffer (25 mM Tris-HCl, 195 mM glycine, 0.01% SDS, 15% methanol). The membrane was split into two at the position of a 25 kDa marker. The membrane after transfer was shaken and blocked in 5% skim milk/TBS-T (100 mM Tris-HCl, 150 mM NaCl, 0.1% Tween-20, pH 7.6) at room temperature for 30 minutes. After blocking, a primary antibody reaction was performed in 5% skim milk/TBS-T. As the primary antibody, an anti-p53 antibody (MAB1355, R&D Systems, Inc., diluted 500 times), an anti-MDM2 antibody (sc-965, SantaCruz, diluted 500 times), and an anti-GAPDH antibody (sc-32233, SantaCruz, diluted 20000 times) were used. The membrane was shaken at room temperature for 60 minutes, and then the membrane was washed with TBS-T for 5 minutes. […] Subsequently, the membrane was treated with a chemiluminescence reagent Immobilon™ Western (Millipore), and then chemiluminescence was detected using a lumino image analyzer LAS-3000 (FUJIFILM Corporation). Detected bands were quantified with an image processing software ImageJ (NIH).

MDM2 protein = molecular target: T2, MDM2 protein (Mus musculus, UniProt P23804); test: Degradation of MDM2 protein in each tissue of mouse after administration, Western blot analysis; format: in vivo; settings: 48 hours after administration
T2 construct: administered intraperitoneally to C57BL/6J wild-type mice; from tissue; host or cells: C57BL/6J wild-type mice: liver, kidneys, spleen, heart
Experimental: as §1, §2
as §3, with “Electrophoresis was performed at 160 V for 60 minutes (electrophoresis buffer; 195 mM glycine, 25 mM Tris).” left out
After electrophoresis, proteins were transferred to a PVDF membrane (Immobion™-P, Millipore) under conditions of 100 V and 1.5 hours using a tank-type blotting device and a transfer buffer (25 mM Tris-HCl, 195 mM glycine, 0.01% SDS, 15% methanol). […] Subsequently, the membrane was treated with a chemiluminescence reagent Immobilon™ Western (Millipore), and then chemiluminescence was detected using a lumino image analyzer LAS-3000 (FUJIFILM Corporation). Detected bands were quantified with an image processing software ImageJ (NIH).

T1 sequence (P02340 whole entry): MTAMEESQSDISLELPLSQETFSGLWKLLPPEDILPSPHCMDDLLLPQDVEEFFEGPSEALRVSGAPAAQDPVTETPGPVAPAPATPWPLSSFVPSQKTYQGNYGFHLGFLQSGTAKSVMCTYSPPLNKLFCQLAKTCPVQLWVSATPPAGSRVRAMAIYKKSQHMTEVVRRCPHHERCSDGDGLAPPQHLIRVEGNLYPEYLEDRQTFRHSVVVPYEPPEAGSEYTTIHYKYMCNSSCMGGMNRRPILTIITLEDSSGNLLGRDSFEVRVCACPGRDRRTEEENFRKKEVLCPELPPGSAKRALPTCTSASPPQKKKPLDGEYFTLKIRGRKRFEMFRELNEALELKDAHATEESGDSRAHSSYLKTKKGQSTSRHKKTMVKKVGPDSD
T2 sequence (P23804 whole entry): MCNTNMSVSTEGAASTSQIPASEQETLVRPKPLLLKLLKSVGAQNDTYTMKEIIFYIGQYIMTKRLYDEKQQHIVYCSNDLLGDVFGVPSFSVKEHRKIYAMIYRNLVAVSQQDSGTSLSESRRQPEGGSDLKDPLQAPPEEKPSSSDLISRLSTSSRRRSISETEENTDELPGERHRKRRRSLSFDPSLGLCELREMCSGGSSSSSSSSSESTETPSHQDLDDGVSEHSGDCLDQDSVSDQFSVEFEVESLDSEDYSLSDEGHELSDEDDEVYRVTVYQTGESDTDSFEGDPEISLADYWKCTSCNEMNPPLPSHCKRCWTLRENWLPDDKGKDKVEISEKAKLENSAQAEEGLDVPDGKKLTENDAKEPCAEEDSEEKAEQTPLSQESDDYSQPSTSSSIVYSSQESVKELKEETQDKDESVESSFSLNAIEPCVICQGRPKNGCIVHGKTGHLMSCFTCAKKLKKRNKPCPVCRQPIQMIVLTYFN

amount of wild-type p53 protein in kidneys (wild-type p53 protein; intraperitoneal 50 or 100 mg/kg body weight, 48 hours after administration, kidneys): reduction of the target was not found
amount of wild-type p53 protein in liver (wild-type p53 protein; intraperitoneal, only at a dose of 100 mg/kg body weight, 48 hours after administration, liver): reduced slightly
amount of MDM2 protein in kidneys (MDM2 protein; intraperitoneal 50 or 100 mg/kg body weight, kidneys): reduction of the target was not found
amount of MDM2 protein in liver (MDM2 protein; intraperitoneal, only at a dose of 100 mg/kg body weight, liver): reduced slightly
Compound: CC(C)C[C@H](NC(=O)CNC(=O)c1cc(Cl)ccc1Cl)C(=O)NCCCCCCC(=O)Nc1ccc(C(=O)/C=C/c2ccc(I)cc2)cc1 [TIBC-CANDDY_MLN]
amount of wild-type p53 protein in heart (wild-type p53 protein; intraperitoneal 50 or 100 mg/kg body weight, 48 hours after administration, heart): reduced in a concentration dependent manner
amount of wild-type p53 protein in spleen (wild-type p53 protein; intraperitoneal 50 or 100 mg/kg body weight, 48 hours after administration, spleen): reduced in a concentration dependent manner
transfer property to tissues (molecular kinetics) (wild-type p53 protein; suggested from p53 and MDM2 degradation in tissues): showed a higher transfer property to the heart, liver, and spleen as compared with the kidneys
amount of MDM2 protein in heart (MDM2 protein; intraperitoneal 50 or 100 mg/kg body weight, heart): reduced in a concentration dependent manner
amount of MDM2 protein in spleen (MDM2 protein; intraperitoneal 50 or 100 mg/kg body weight, spleen): reduced in a concentration dependent manner
